Experimental data as given in EP1027880A2, “Use of quaternary ammonium compounds as antiperspirants” (Beiersdorf Aktiengesellschaft, priority 1999, dated 2000).
Values joined by “and” are separate entries in the source; they are usually repeats but may differ in a detail not shown here. Equal entries are not always repeated.

System: Schweißsekretion
Test: Imprint method: sweat reduction on the inner forearm after topical application for several days, sauna sweating, silicone imprint with image analysis
Assay type: in vivo, menschlichen Probanden
Text: Der Nachweis der Wirksamkeit wurde an menschlichen Probanden mit Hilfe der sogenannten "Imprintmethode" geführt. Bei dieser Methode wird das zu untersuchende Material am Unterarm innen mehrere Tage hintereinander (topisch) angewendet, sodann begeben sich die Probanden in die Sauna zum Schwitzen. An der Untersuchungsstelle wird eine Silikonmasse aufgetragen, die während der Schwitzphase aushärtet. An den Stellen, an denen Schweisströpfchen austreten, bilden sich Abdrücke in der Silikonmasse, welche bildanalytisch ausgewertet werden können. Nach diesem Verfahren wurden zunächst die Wirkstoffe in wäßriger Lösung untersucht und sodann entsprechende kosmetische Zubereitungen.
Es wurden wässrige Lösungen aus Mecetroniumethylsulfat (MES) hergestellt und an 15 Probanden die Schweissreduktion mit Hilfe der Imprint-Methode am inneren Unterarm geprüft. Zum Vergleich wurde eine 10 %ige Aluminiumchlorhydrat-Lösung verwendet

Molecule | Reduktion der Schweißsekretion (in vivo) | Reduktion der Schweißsekretion (10 %ige comparison solution, 15 Probanden, inner forearm) [%]
CCCCCCCCCCCCCCCC[N+](C)(C)CC [MES, N-Hexadecyl-N-ethyl-N,N-dimethylammoniumethylsulfat] | 93% and 95% | –
Aluminiumchlorhydrat | – | 93
